Laboratory results as given in US4822635A, “Sweetening with L-aminodicarboxylic acid esters” (General Foods Corporation, priority 1988, dated 1989).
“And” between values parts separate entries of the source, which are not always exact repeats. Equal values may be shown once. Where a SMILES comes first, the peptide text is derived from it. The star is where a group is joined. tBu = CC(C)(C)*

Assays:
[1] = Stability (half life) in buffer solutions at pH 3, 5 and 7 at 50, 75 or 100 °C; assay type: physicochemical; conditions: for half-life: buffer; for Stability in buffered solutions: buffered solutions at pH 3, 5 and 7; for Stability compared with aspartame: buffered solutions studied, except pH 3 at 100 °C
Description: α-L-Aspartyl-2-methylalanine[β(+)Fenchyl]ester (Example 9), α-L-Aspartyl-D-alanine[β(+)Fenchyl]ester, (Example 10) and aspartame L-Aspartyl-L-phenylalanine methyl ester were studied for stability at pH3, 5 and 7 in buffer solutions maintained at 50° C., 75° C., or 100° C., the following results were obtained: […]

[2] = Sweetness determination by a panel of experts: aqueous solutions matched to sucrose standard solutions (sucrose equivalence); set-up: key to Sucrose equivalence: weight % sucrose solution of matched sweetness
Description: A taste procedure for determination of sweetness merely involves the determination of sucrose equivalency. Sucrose equivalence for sweeteners are readily determined. The amount of a sweetener that is equivalent to a given weight percent sucrose can be determined by having a panel of tasters taste solutions of a sweetener at known concentrations and match its sweetness to standard solutions of sucrose.
The following examples further illustrate the invention. In the following examples, the sensory evaluation were obtained by a panel of experts using known weight percent aqueous solutions of the exemplified compounds and were matched to sucrose standard solutions.

[3] = prior art statement; cited from earlier work
[4] = pH 3, buffer solution, 50 °C, pH 3
[5] = pH 3, buffer solution, 75 °C, pH 3
[6] = pH 3, buffer solution, 100 °C, pH 3
[7] = pH 5, buffer solution, 50 °C, pH 5
[8] = pH 5, buffer solution, 75 °C, pH 5
[9] = pH 5, buffer solution, 100 °C, pH 5
[10] = pH 7, buffer solution, 100 °C, pH 7
[11] = concentration 0.00185 (weight percent aqueous solution)
[12] = concentration 0.0025 (weight percent aqueous solution)
[13] = concentration 0.00375 (weight percent aqueous solution)
[14] = concentration 0.005 (weight percent aqueous solution)
[15] = concentration 0.00692 (so in the source), weight percent aqueous solution
[16] = concentration 0.0075 (weight percent aqueous solution)
[17] = concentration 0.01 (weight percent aqueous solution)
[18] = concentration 0.00012 (weight percent aqueous solution)
[19] = concentration 0.00024 (weight percent aqueous solution)
[20] = concentration 0.00047 (weight percent aqueous solution)
[21] = concentration 0.00092 (weight percent aqueous solution)
[22] = concentration 0.010 (weight percent aqueous solution)
[23] = concentration 0.025 (weight percent aqueous solution)
[24] = concentration 0.05 (weight percent aqueous solution)

## CC(C)(NC(=O)[C@@H](N)CC(=O)O)C(=O)OC1C2(C)CCC(C2)C1(C)C (single isomer, unassigned) [Example 9, α-L-Aspartyl-2-methylalanine[β(+)Fenchyl]ester]
[1]; [4]
  half-life: 92200 min
[1]; [5]
  half-life: 4320 min
[1]; [6]
  half-life: 504 min
[1]; [7]
  half-life: 216000 min
[1]; [8]
  half-life: 21600 min
[1]; [9]
  half-life: 1980 min
[1]; [10]
  half-life: 4020 min
[1]; buffered solutions
  Stability compared with Example 10: more stable
[1]
  Stability in buffered solutions: outstanding stability
  Stability compared with aspartame: better stability
[2]; [11]
  Sucrose equivalence: 5.7%
  Sweetness relative to sucrose: 3100 × Sucrose
[2]; [12]
  Sucrose equivalence: 6.0% and 4.3% and 4.25%
  Sweetness relative to sucrose: 2400 × Sucrose and 1733 × Sucrose and 1700 × Sucrose
[2]; [13]
  Sucrose equivalence: 6.0%
  Sweetness relative to sucrose: 1600 × Sucrose
[2]; [14]
  Sucrose equivalence: 7.37% and 7.0% and 6.0%
  Sweetness relative to sucrose: 1475 × Sucrose and 1400 × Sucrose and 1200 × Sucrose
[2]; [15]
  Sucrose equivalence: 3.5%
  Sweetness relative to sucrose: 3800 × Sucrose
[2]; [16]
  Sucrose equivalence: 8.5%
  Sweetness relative to sucrose: 1133 × Sucrose
[2]; [17]
  Sucrose equivalence: 9.25% and 9.0%
  Sweetness relative to sucrose: 925 × Sucrose and 900 × Sucrose

## C[C@@H](NC(=O)[C@@H](N)CC(=O)O)C(=O)OC1C2(C)CCC(C2)C1(C)C (single isomer, unassigned) [Example 10, α-L-Aspartyl-D-alanine[β(+)Fenchyl]ester]
[1]; [4]
  half-life: 31700 min
[1]; [5]
  half-life: 1870 min
[1]; [6]
  half-life: 234 min
[1]; [7]
  half-life: 189000 min
[1]; [8]
  half-life: 7340 min
[1]; [9]
  half-life: 840 min
[1]; [10]
  half-life: 600 min
[1]
  Stability in buffered solutions: outstanding stability
  Stability compared with aspartame: better stability
[2]; [18]
  Sucrose equivalence: 0.6%
  Sweetness relative to sucrose: 5000 × Sucrose
[2]; [19]
  Sucrose equivalence: 1.42%
  Sweetness relative to sucrose: 5900 × Sucrose
[2]; [20]
  Sucrose equivalence: 2.28%
  Sweetness relative to sucrose: 4900 × Sucrose
[2]; [21]
  Sucrose equivalence: 4.7%
  Sweetness relative to sucrose: 5100 × Sucrose
[2]; [11]
  Sucrose equivalence: 6.5%
  Sweetness relative to sucrose: 3500 × Sucrose
[2]; [12]
  Sucrose equivalence: 6.0%
  Sweetness relative to sucrose: 2400 × Sucrose
[2]; [13]
  Sucrose equivalence: 8.6%
  Sweetness relative to sucrose: 2300 × Sucrose
[2]; [14]
  Sucrose equivalence: 9.3% and 10.0%
  Sweetness relative to sucrose: 1860 × Sucrose and 2000 × Sucrose
[2]; [16]
  Sucrose equivalence: 9.0%
  Sweetness relative to sucrose: 1200 × Sucrose
[2]; [17]
  Sucrose equivalence: 11.0%
  Sweetness relative to sucrose: 1100 × Sucrose

## COC(=O)[C@H](Cc1ccccc1)NC(=O)[C@@H](N)CC(=O)O [Aspartame, L-Aspartyl-L-phenylalanine methyl ester, reference compound] (H-Asp-Phe-OMe)
[1]; [5]
  half-life: 1300 min
[1]; [6]
  half-life: 318 min
[1]; [8]
  half-life: 1580 min
[1]; [9]
  half-life: 318 min
[1]; [10]
  half-life: < 60 min
[1]; pH 3, 100 °C, between Example 9 and Example 10
  Stability compared with Example 9 and Example 10: intermediate stability

## C[C@@H](NC(=O)[C@@H](N)CC(=O)O)C(=O)OC1C(C)(C)CCC1(C)C [Example 1, L-Aspartyl-D-alanine(2,2,5,5-tetramethyl-1-cyclopentyl)ester]
[2]; [14]
  Sucrose equivalence: 2.5
[2]; [22]
  Sucrose equivalence: 3.7
[2]; [23]
  Sucrose equivalence: 7.7
[2]; [24]
  Sucrose equivalence: 8.0

## CC(C)(NC(=O)[C@@H](N)CC(=O)O)C(=O)OC1C(C)(C)CCC1(C)C [Example 2, N-(L-Aspartyl)-2-methylalanine(2,2,5,5-tetramethyl-1-cyclopentyl)ester]
[2]; [14]
  Sucrose equivalence: 2.00
[2]; [22]
  Sucrose equivalence: 3.25
[2]; [23]
  Sucrose equivalence: 5.75

## C[C@@H](NC(=O)[C@@H](N)CC(=O)O)C(=O)OC1(C)CCCC1 [Example 6, N-L-Aspartyl-D-alanine (1-methyl-1-cyclopentyl)ester]
[2]; [24]
  Sucrose equivalence: 2.0
  Sweetness relative to sucrose: 40 × Sucrose

## CC1CCC(C)C1OC(=O)[C@@H](C)NC(=O)[C@@H](N)CC(=O)O (stereo partly drawn) [Example 7, N-L-Aspartyl-D-alanine(2,5-dimethylcyclopentyl)ester]
[2]; [14]
  Sucrose equivalence: 1.16
  Sweetness relative to sucrose: 233 × Sucrose
[2]; [17]
  Sweetness relative to sucrose: 230 × Sucrose
[2]; [22]
  Sucrose equivalence: 2.3
[2]; [23]
  Sucrose equivalence: 4.82
  Sweetness relative to sucrose: 193 × Sucrose
[2]; [24]
  Sucrose equivalence: 7.50
  Sweetness relative to sucrose: 150 × Sucrose

## CC1CCC(C)C1OC(=O)C1(NC(=O)[C@@H](N)CC(=O)O)CC1 (stereo partly drawn) [L-Aspartyl-1-aminocyclopropyl-1-carboxylicacid, 2,5-dimethyl-1-cyclopentyl ester]
[2]; [14]
  Sucrose equivalence: 1.0
  Sweetness relative to sucrose: 200 × Sucrose
[2]; [17]
  Sweetness relative to sucrose: 217 × Sucrose
[2]; [22]
  Sucrose equivalence: 2.2
[2]; [23]
  Sucrose equivalence: 3.3
  Sweetness relative to sucrose: 133 × Sucrose

## CCC(C)(C)OC[C@H](NC(=O)[C@@H](N)CC(=O)O)C(=O)OC [L-aspartyl-O-t-amyl-L-serine methyl ester]
[3]
  Sweetness (in words): significant sweetness

## COC(=O)[C@H](COC(C)(C)C)NC(=O)[C@@H](N)CC(=O)O [L-aspartyl-O-t-butyl-L-serine methyl ester] (H-Asp-Ser(tBu)-OMe)
[3]
  Sweetness (in words): significant sweetness
